# Experimental data as given in patent publication US20190119282A1, “IMIDAZOPYRIDAZINES USEFUL AS INHIBITORS OF THE PAR-2 SIGNALING PATHWAY” (Vertex Pharmaceuticals Incorporated, priority 2013, published 2019).
# pIC50: −log10 of the molar value. Marks after values point to notes of the source that are not given here.
# Columns and labels:
# [1] = system: carrageenan-induced paw edema; experiment: Rat carrageenan-induced paw edema model; format: in vivo, Sprague Dawley rats; conditions: given before carrageenan challenge
# Experimental: Male Sprague Dawley rats and BALB/c mice were housed in groups in a temperature controlled room and were acclimatized in the animal facility for at least three days prior to use. Experiments were performed during the light phase of the cycle. Animals have food and water ad libitum.
# Example 63: Rat Carrageenan-Induced Paw Edema Model
# Peripheral inflammation was induced by intra-plantar administration of 100 ul of a 1% w/volume (in saline) carrageenan solution under isoflurane anesthesia. The degree of swelling was assessed using the plethysmometer at 2-3-4-5-6 h after carrageenan injection. Test compound or vehicle (0.5% MC/0.1% SDS) was systemically administered at the indicated doses in a volume of 5 mL/kg either I-3 hour before carrageenan challenge (Table 9) or 2 hours post carrageenan challenge (Table 10).
# Data are expressed as the mean % effect. Statistical significance was assessed using t-test for comparison between naive and inflamed rats, and one-way ANOVA followed by post-hoc comparison test for overall drug effectiveness. A difference between groups is considered significant with a p value of <0.05. *, p<0.05; **, p<0.01; ***, p<0.001 vs. vehicle.
# [2] = target: T1, PAR2 (HT-29 cells, trypsin activation) (Homo sapiens, UniProt P55085); experiment: Ca FLIPR TETRA assay, ANTAGONIST mode, stimulation with 3.1 U/mL trypsin; format: cell-based; conditions: HT-29 cells
# T1 construct: host or cells: HT-29 cells
# T1 sequence (P55085 26-397): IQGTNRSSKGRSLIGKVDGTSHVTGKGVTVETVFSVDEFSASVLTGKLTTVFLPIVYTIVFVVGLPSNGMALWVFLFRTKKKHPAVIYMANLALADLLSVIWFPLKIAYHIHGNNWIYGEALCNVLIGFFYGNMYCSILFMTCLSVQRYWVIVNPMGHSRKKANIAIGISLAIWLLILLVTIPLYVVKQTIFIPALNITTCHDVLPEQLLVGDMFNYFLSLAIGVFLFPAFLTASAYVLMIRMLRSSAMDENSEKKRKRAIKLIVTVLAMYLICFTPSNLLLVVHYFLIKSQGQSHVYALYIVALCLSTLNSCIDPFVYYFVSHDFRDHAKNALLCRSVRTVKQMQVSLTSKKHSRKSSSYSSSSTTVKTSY
# How it was run: (§1)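 Cells plated overnight at 37 °C, 5% CO2 in 1% FBS medium; dye loading 45 min at 37 °C then 15 min r.t.; compound added from DMSO/HBSS dilution; first read for intrinsic Ca2+ activation; 30 min r.t. incubation; antagonist read after addition of the fixed activator (8 μM SLIGKV, 1 U/mL thrombin, 3.1 U/mL trypsin or 0.6 μM UTP).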
# [3] = target: T2, PAR2 (HT-29 cells, SLIGKV activation) (Homo sapiens, UniProt P55085); experiment: Ca FLIPR TETRA assay, ANTAGONIST mode, stimulation with 8 μM SLIGKV; format: cell-based; conditions: HT-29 cells
# T2 construct: host or cells: HT-29 cells
# T2 sequence (P55085 26-397): T1 sequence (P55085 26-397)
# How it was run: as §1
# [4] = system: UTP-stimulated Ca2+ response in HT-29 cells; experiment: Ca FLIPR TETRA assay, ANTAGONIST mode, stimulation with 0.6 μM UTP; format: cell-based, human; conditions: Homo sapiens, HT-29 cells
# How it was run: as §1
# [5] = system: Thrombin-stimulated Ca2+ response in HT-29 cells; experiment: Ca FLIPR TETRA assay, ANTAGONIST mode, stimulation with 1 U/mL Thrombin; format: cell-based, human; conditions: Homo sapiens, HT-29 cells
# How it was run: as §1
# [6] = In vivo rat pharmacokinetics (intravenous and oral); conditions: plasma; for clearance: intravenous 0.5 to 1 mg/kg, read-out: Clp; for Vd: intravenous, read-out: Vss; for bioavailability: oral by gavage; for half-life: read-out: T ½ (converted)
# Experimental: Example 61: Protocol for Testing PAR2 Compounds In Vivo Rat Pharmacokinetics Experiments
# Compounds delivered by intravenous route were formulated using a solution formulation consisting of 5% N-methylpyrrolidone 10% Vitamin E-TPGS and 85% water (v/v/) or a solution formulation consisting of 25% N-methylpyrrolidone 35% polyethylene glycol 400 and 40% water (v/v/). Intravenous formulations were administered by a bolus injection (over approximately 10 seconds) using a hypodermic needle attaches to a syringe (tail vein). The dose volume was varied from 1 to 2 mL/kg and the dose was varied from 0.5 to 1 mg/kg. Compounds delivered orally were formulated as a solution formulation consisting of 5% N-methylpyrrolidone 10% Vitamin E-TPGS and 85% water (v/v/) or as fine suspension using a cellulose derivative suspending agent with or without the addition of a wetting agent/surfactant. Milling of large particles was performed as needed to reduce particle size using focused electroacoustic milling, homogenization or low energy media milling. A spray-dried solid dispersion was prepared for key compounds using 1:1 combination with cellulose derivatives. Test compounds were administered orally by gavage using a gavage plastic needle attached to a syringe. The dose volume was varied from 5 to 10 mL/kg and the dose was varied from 1 to 600 mg/kg.
# Rats were bled by venipuncture (jugular vein) and the samples were collected into tubes containing K3EDTA. The tubes were placed on wet ice until processed. The samples were centrifuged for approximately 10 minutes (at approximately 4° C.) within approximately 30 minutes of collection to prepare plasma or diluted in citrate buffer (1:3) and stored frozen (approximately −30° C.). Thawed plasma or whole blood samples were extracted by protein precipitation using an organic solvent followed by centrifugation. The supernatants were separated by high-performance liquid chromatography coupled to mass spectrometry detection. A calibration curve was prepared using reference standard compounds spiked into either blank plasma or whole blood matrices and extracted similarly to unknown samples. Pharmacokinetic parameters were calculated using non-compartmental analysis.
# [7] = antagonist mode, stimulation with 3.1 U/mL trypsin
# [8] = antagonist mode, stimulation with 8 μM SLIGKV
# [9] = antagonist mode, stimulation with 0.6 μM UTP
# [10] = antagonist mode, stimulation with 1 U/mL Thrombin
# [11] = stimulation with 3.1 U/mL trypsin
# [12] = stimulation with 1 U/mL Thrombin
smiles,measurement,setting,value
Cc1nnc(C(=O)N2CCN(C(=O)c3cn4nc(-c5ccc(F)cc5)cc(C(C)(C)C)c4n3)C(C)(C)C2)o1 [Compound I-288],% inhibition of carrageenan induced paw edema,[1]; dose 10 mg/kg,48*** %
same,pIC50,[2]; [7],8.74
same,pIC50,[3]; [8],8.92
same,pIC50,[4]; [9],< 6.00
same,pIC50,[5]; [10],6.11
CC(C)(C)c1cc(-c2ccc(C(F)(F)F)cc2)nn2cc(C(=O)N3CCN(c4cn[nH]c4)C(=O)C3(C)C)nc12 [Compound I-366],% inhibition of carrageenan induced paw edema,[1]; dose 20 mg/kg,43** %
same,pIC50,[2]; [7],8.60
same,pIC50,[3]; [8],8.66
same,pIC50,[4]; [9],< 6.00
same,pIC50,[5]; [10],< 6.00
C[C@@H]1C[C@H](c2cc(-c3ccc(F)cc3)nn3cc(C(=O)N4CCN(C(=O)[C@H]5C[C@](O)(C(F)(F)F)C5)CC4(C)C)nc23)C[C@H](C)O1 [Compound I-213],% inhibition of carrageenan induced paw edema,[1]; dose 7 mg/kg,36* %
same,pIC50,[2]; [7],8.27
same,pIC50,[3]; [8],8.46
same,pIC50,[4]; [9],< 6.00
same,pIC50,[5]; [10],< 6.00
Cc1cc(C(=O)N2CCN(C(=O)c3cn4nc(-c5ccc(F)cc5)cc(C(C)(C)C)c4n3)C(C)(C)C2)[nH]n1 [Compound I-291],% inhibition of carrageenan induced paw edema,[1]; dose 5 mg/kg,37** %
same,pIC50,[2]; [7],9.52
same,pIC50,[3]; [8],9.70
same,pIC50,[4]; [9],6.17
same,pIC50,[5]; [10],6.12
CC(C)(C)c1cc(-c2ccc(F)cc2)nn2cc(C(=O)N3CCN(C(=O)c4cn[nH]c4)CC3(C)C)nc12 [Compound I-228],% inhibition of carrageenan induced paw edema,[1]; dose 10 mg/kg,48** %
same,pIC50,[2]; [7],9.10
same,pIC50,[3]; [8],9.22
same,pIC50,[4]; [9],6.23
same,pIC50,[5]; [10],6.23
Cc1cc(-c2cc(C(C)(C)C)c3nc(C(=O)N4CCN(c5cn[nH]c5)C(=O)C4(C)C)cn3n2)ccc1F [Compound I-417],% inhibition of carrageenan induced paw edema,[1]; dose 20 mg/kg,32** %
same,pIC50,[2]; [7],8.49
same,pIC50,[3]; [8],8.60
same,pIC50,[4]; [9],< 6.00
same,pIC50,[5]; [10],< 6.00
CC(C)(C)c1cc(C2CCC(F)(F)CC2)nn2cc(C(=O)N3CCN(c4cn[nH]c4)C(=O)C3(C)C)nc12 [Compound I-429],% inhibition of carrageenan induced paw edema,[1]; dose 20 mg/kg,43** %
same,pIC50,[2]; [7],8.48
same,pIC50,[3]; [8],8.62
same,pIC50,[4]; [9],< 6.00
same,pIC50,[5]; [10],< 6.00
Cc1n[nH]c(C(=O)N2CCN(C(=O)c3cn4nc(-c5ccc(F)cc5)cc(C(C)(C)C)c4n3)CC2)n1 [Compound I-525],% inhibition of carrageenan induced paw edema,[1]; dose 50 mg/kg,9%
same,pIC50,[2]; [7],6.61
same,pIC50,[3]; [8],6.94
same,pIC50,[4]; [9],< 6.00
same,pIC50,[5]; [10],< 6.00
"CC(C)c1cc(-c2ccc(F)cc2)nn2cc(C(=O)N3CCN(C(=O)C4(O)CCOCC4)CC3(C)C)nc12 [Compound I-27, [6-(4-fluorophenyl)-8-isopropyl-imidazo[1,2-b]pyridazin-2-yl]-[4-(4-hydroxytetrahydropyran-4-carbonyl)-2,2-dimethyl-piperazin-1-yl]methanone]",% inhibition of carrageenan induced paw edema,[1]; dose 3 mg/kg,16%
same,% inhibition of carrageenan induced paw edema,[1]; dose 6 mg/kg,25* %
same,% inhibition of carrageenan induced paw edema,[1]; dose 10 mg/kg,30%
same,% inhibition of carrageenan induced paw edema,[1]; dose 20 mg/kg,33** %
same,% inhibition of carrageenan induced paw edema,[1]; dose 30 mg/kg,31* %
same,% inhibition of carrageenan induced paw edema,[1]; dose 60 mg/kg,30** %
same,pIC50,[2]; [11],6.60
same,pIC50,[3]; stimulation with 8 μM SLIGKV,7.23
same,pIC50,[4]; stimulation with 0.6 μM UTP,4.38
same,pIC50,[5]; [12],4.46
Cn1nnc(N2CCN(C(=O)c3cn4nc(-c5ccc(F)cc5)cc(C(C)(C)C)c4n3)C(C)(C)C2=O)n1 [Compound I-249],% inhibition of carrageenan induced paw edema,[1]; dose 10 mg/kg,49*** %
same,% inhibition of carrageenan induced paw edema,[1]; dose 30 mg/kg,26* %
same,pIC50,[2]; [7],9.15
same,pIC50,[3]; [8],9.22
same,pIC50,[4]; [9],< 6.00
same,pIC50,[5]; [10],< 6.00
CC(C)(C)c1cc(-c2ccc(F)cc2)nn2cc(C(=O)N3CCN(c4cn[nH]c4)C(=O)C3(C)C)nc12 [Compound I-310],% inhibition of carrageenan induced paw edema,[1]; dose 5 mg/kg,25** %
same,pIC50,[2]; [7],9.00
same,pIC50,[3]; [8],9.22
same,pIC50,[4]; [9],6.06
same,pIC50,[5]; [10],< 6.00
CC(C)c1cc(-c2ccc(C(F)(F)F)cc2)nn2cc(C(=O)N3CCNC(=O)C3(C)C)nc12 [Compound I-241],% inhibition of carrageenan induced paw edema,[1]; dose 7 mg/kg,17** %
same,pIC50,[2]; [7],8.70
same,pIC50,[3]; [8],8.77
same,pIC50,[4]; [9],< 6.00
same,pIC50,[5]; [10],< 6.00
"CC1(C)C(=O)NCCN1C(=O)c1cn2nc(-c3ccc(F)cc3)cc(C3CCOCC3)c2n1 [Compound I-29, 4-[6-(4-fluorophenyl)-8-tetrahydropyran-4-yl-imidazo[1,2-b]pyridazine-2-carbonyl]-3,3-dimethyl-piperazin-2-one]",pIC50,[2]; [11],6.41
same,pIC50,[3]; stimulation with 8 μM SLIGKV,6.62
same,pIC50,[4]; stimulation with 0.6 μM UTP,< 4.30
same,clearance,[6],3.6 mL/min/kg
same,Vd,[6],1.8 L/kg
same,bioavailability,[6],71%
same,half-life,[6],6.7 h
same,pIC50,[5]; [12],< 4.30
"Cc1cc(-c2ccc(F)cc2)nn2cc(C(=O)N3CCN(C(=O)[C@H](O)CC(C)(C)C)[C@@H](C)C3)nc12 [Compound I-9, (R)-1-((S)-4-(6-(4-Fluorophenyl)-8-methylimidazo[1,2-b]pyridazine-2-carbonyl)-2-methylpiperazin-1-yl)-2-hydroxy-4,4-dimethylpentan-1-one]",pIC50,[2]; [11],6.96
same,pIC50,[3]; stimulation with 8 μM SLIGKV,8.05
same,pIC50,[4]; stimulation with 0.6 μM UTP,< 5.30
same,clearance,[6],21.7 mL/min/kg
same,Vd,[6],1.4 L/kg
same,bioavailability,[6],57%
same,half-life,[6],1.2 h
same,pIC50,[5]; [12],< 5.30
"CC(C)(C)c1cc(C2CCC(F)(F)CC2)nn2cc(C(=O)N3CCN(C(=O)[C@H]4C[C@@](C)(O)C4)CC3(C)C)nc12 [Compound I-452, [8-tert-butyl-6-(4,4-difluorocyclohexyl)imidazo[1,2-b]pyridazin-2-yl]-[4-(3-hydroxy-3-methyl-cyclobutanecarbonyl)-2,2-dimethyl-piperazin-1-yl]methanone]",pIC50,[2]; [7],8.21
same,pIC50,[3]; [8],8.48
same,pIC50,[4]; [9],4.94
same,clearance,[6],7.24 mL/min/kg
same,Vd,[6],1.96 L/kg
same,bioavailability,[6],67%
same,half-life,[6],3.62 h
same,pIC50,[5]; [10],5.11
"CC(C)(C)c1cc(-c2ccc(F)cc2)nn2cc(C(=O)N3CCN(C(=O)[C@H]4CC[C@@](C)(C(=O)O)CC4)CC3(C)C)nc12 [Compound I-563, (1S,4S)-4-(4-(8-(tert-butyl)-6-(4-fluorophenyl)imidazo[1,2-b]pyridazine-2-carbonyl)-3,3-dimethylpiperazine-1-carbonyl)-1-methylcyclohexane-1-carboxylic acid]",pIC50,"[2]; antagonist mode, 3.1 U/mL trypsin",9.40
same,pIC50,"[3]; antagonist mode, 8 μM SLIGKV",9.52
same,pIC50,"[4]; antagonist mode, 0.6 μM UTP",< 6.00
same,clearance,[6],61.7 mL/min/kg
same,Vd,[6],1.19 L/kg
same,bioavailability,[6],15%
same,half-life,[6],0.413 h
same,pIC50,"[5]; antagonist mode, 1 U/mL Thrombin",< 6.00
